US20100003542A1, “Coating of artificial surfaces of medical aids and instruments, and cleaning and/or pretreatment of catheters and other medical aids and instruments” (BAYER SCHERING PHARMA AKTIENGESSELSCHAFT, priority 2006, published 2010)

Test system: intrinsic blood clotting system
Test: Determination of the inhibition of contact activation: activated partial thromboplastin time (aPTT) in platelet-poor plasma
Design: species or system human
Conditions: concentration of inhibitor causing twofold prolongation of aPTT; platelet-poor citrate plasma from healthy volunteers; 10 min incubation at 37° C.; PTT reagent (kaolin/cephalin)
Source text: The contact activation can be measured by means of a global plasma clotting test, the activated partial thromboplastin time (aPTT), which detects the effect on factors of the intrinsic blood clotting system.
The PTT reagent is a mixture of kaolin suspension, that is “silicates”, which mimic the negatively charged foreign surface, and cephalin, that is phospholipids, which are needed as a surface for the conversion of factor XII into factor XIIa. In the presence of a foreign surface, phospholipid and Ca^2+, factor XII is converted to factor XIIa.
This PTT reagent is added to specially prepared plasma (see examples). The clotting is triggered when the necessary calcium^2+ ions are present, i.e. by addition of a calcium dichloride solution. The time between calcium^2+ addition and the onset of clotting is then measured, and the concentration of inhibitor [in μM] which causes a twofold prolongation of the aPTT is stated.
The contact activation is determined by determination of the partial thromboplastin time. The test principle is as follows: the plasma sample is treated with a mixture of the partial thromboplastin cephalin (phospholipid from rabbit brain) and the surface activator kaolin. The contact activation of the intrinsic clotting system up to fibrin formation is thus set in motion.
For the determination of the partial thromboplastin time, blood from healthy volunteers of both sexes, who had not received any medication affecting clotting within the last ten days, was used. The blood is collected in Monovettes (Sarstedt, Nümbrecht) which contain sodium citrate (1 part citrate+9 parts blood) as anticoagulant. To obtain platelet-poor plasma, the citrate (3.8%) whole blood is centrifuged at 2500 g for 10 min at 4° C. and stored at −20° C. For the determination of the clotting time, aliquots of the platelet-poor plasma (0.1 ml) are incubated with increasing concentrations of test substance or the corresponding solvent for 10 mins at 37° C. Next, the clotting time is determined in accordance with the manufacturer's directions (PTT Reagent®, Roche Diagnostics). For this the procedure is as follows: 0.1 ml of PTT reagent is pipetted into the plasma, and the sample incubated for three minutes at 37° C. The clotting is then triggered in a coagulometer by addition of 0.1 ml of calcium chloride solution and the time to onset of clotting is measured. In this manner, the 2-fold prolongation of the aPTT is determined for selected compounds.

Structure (SMILES)	Twofold prolongation of the aPTT [µM]
O=C(NC[C@H]1CN(c2ccc(N3CCOCC3=O)cc2)C(=O)O1)c1ccc(Cl)s1 [Example 44, 5-chloro-N-({(5S)-2-oxo-3-[4-(3-oxo-4-morpholinyl)phenyl]-1,3-oxazolidin-5-yl}methyl)-2-thiophencarboxamide]	0.69
O=C(NCC1CN(c2ccc(N3CCOCC3=O)c(C(F)(F)F)c2)C(=O)O1)c1ccc(Cl)s1 (centres unmarked) [Example 114]	2.2
O=C(NCC1CN(c2ccc(N3CCCC3=O)c(C(F)(F)F)c2)C(=O)O1)c1ccc(Cl)s1 (centres unmarked) [Example 112]	1.6
Cc1cc(N2CC(CNC(=O)c3ccc(Cl)s3)OC2=O)ccc1N1CCOCC1=O (centres unmarked) [Example 115]	1.34
O=C(NC[C@H]1CN(c2ccc(N3CCCC3=O)cc2)C(=O)O1)c1ccc(Cl)s1 [Example 17]	1.8
O=C(NCC1CN(c2ccc(N3CCOCC3=O)c(F)c2)C(=O)O1)c1ccc(Cl)s1 (centres unmarked) [Example 95]	0.51
O=C(NC[C@H]1CN(c2ccc(N3CCOCC3=O)c(F)c2)C(=O)O1)c1ccc(Cl)s1 [Example 130a]	0.4
O=C(NC[C@H]1CN(c2ccc(N3CCCC3=O)cc2)C(=O)O1)c1ccc(Br)s1 [Example 56]	4.3
O=C(NC[C@H]1CN(c2ccc(N3CCCCC3=O)cc2)C(=O)O1)c1ccc(Cl)s1 [Example 162]	2.5
O=C(NCC1CN(c2ccc(N3CCOCC3=O)c(Cl)c2)C(=O)O1)c1ccc(Cl)s1 (centres unmarked) [Example 113]	0.55
Nc1cc(N2CC(CNC(=O)c3ccc(Cl)s3)OC2=O)ccc1N1CCOCC1=O (centres unmarked) [Example 123]	1.22
